Patent publication US6737383B1, “Herbicidal oxadiazolidines” (priority 1999, dated 2004)

What was measured:
[1] = tested on: morningglory; assay: Test B pre/postemergence morningglory; assay type: in vivo, Ipomoea hederacea
Method in brief: (§1)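 Herbicidal effect was estimated by eye on a ten-point control scale after plants spent twelve to sixteen days in a greenhouse following soil or foliar treatment. Foliar sprays targeted plants at one to four leaves; all doses were formulated in a non-phytotoxic solvent with surfactant.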

[2] = tested on: pigweed; assay: Test B pre/postemergence pigweed; assay type: in vivo, Amaranthus retroflexus
Method in brief: as §1

[3] = tested on: crabgrass; assay: Test B pre/postemergence crabgrass; assay type: in vivo, Digitaria sanguinalis
Method in brief: as §1

[4] = tested on: velvetleaf; assay: Test B pre/postemergence velvetleaf; assay type: in vivo, Abutilon theophrasti
Method in brief: as §1

[5] = tested on: bedstraw; assay: Test B pre/postemergence bedstraw; assay type: in vivo, Galium aparine
Method in brief: as §1

[6] = tested on: surinam grass; assay: Test B pre/postemergence surinam grass; assay type: in vivo, Brachiaria decumbens
Method in brief: as §1

[7] = tested on: sugar beet; assay: Test B pre/postemergence sugar beet; assay type: in vivo, Beta vulgaris
Method in brief: as §1

[8] = tested on: corn; assay: Test B pre/postemergence corn; assay type: in vivo, Zea mays
Method in brief: as §1

[9] = tested on: cocklebur; assay: Test B pre/postemergence cocklebur; assay type: in vivo, Xanthium strumarium
Method in brief: as §1

[10] = tested on: blackgrass; assay: Test B pre/postemergence blackgrass; assay type: in vivo, Alopecurus myosuroides
Method in brief: as §1

[11] = tested on: soybean; assay: Test B pre/postemergence soybean; assay type: in vivo, Glycine max
Method in brief: as §1

[12] = tested on: wheat; assay: Test B pre/postemergence wheat; assay type: in vivo, Triticum aestivum
Method in brief: as §1

[13] = tested on: purple nutsedge; assay: Test B pre/postemergence purple nutsedge; assay type: in vivo, Cyperus rotundus
Method in brief: as §1

[14] = tested on: wild oat; assay: Test B pre/postemergence wild oat; assay type: in vivo, Avena fatua
Method in brief: as §1

[15] = tested on: giant foxtail; assay: Test B pre/postemergence giant foxtail; assay type: in vivo, Setaria faberii
Method in brief: as §1

[16] = tested on: rape; assay: Test B pre/postemergence rape; assay type: in vivo, Brassica napus
Method in brief: as §1

[17] = Postemergence, Rate 62 g/ha, scale of 0 to 10, 0 is no effect, 10 is complete control
[18] = Postemergence, Rate 125 g/ha, scale 0 to 10, 0 is no effect, 10 is complete control
[19] = Postemergence, Rate 500 g/ha, scale of 0 to 10 where 0 is no effect and 10 is complete control
[20] = Preemergence, Rate 62 g/ha, scale 0 to 10 (0 no effect, 10 complete control)
[21] = Preemergence, Rate 125 g/ha, scale 0 to 10, 0 is no effect, 10 is complete control
[22] = Preemergence, Rate 500 g/ha, scale of 0 to 10 where 0 is no effect and 10 is complete control
[23] = Rate 250 g/ha, Postemergence, scale of 0 to 10 where 0 is no effect and 10 is complete control

CCCCCn1c(=O)on(C(=O)N(c2ccccc2)C(C)C)c1=O [Compound 557]
Morningglory plant response rating [1, 17]: 5
Morningglory plant response rating [1, 18]: 8
Plant response rating, Morningglory [1, 19]: 8
Morningglory plant response rating [1, 20]: 0
Morningglory plant response rating [1, 21]: 0
Morningglory plant response rating (0 to 10 scale) ([1]; Preemergence, Rate 250 g/ha): 0
Morningglory plant response rating [1, 22]: 0
Redroot pigweed plant response rating [2, 17]: 0
Plant response rating, Redroot pigweed [2, 19]: 0
Redroot pigweed plant response rating [2, 20]: 0
Redroot pigweed plant response rating [2, 21]: 0
Redroot pigweed plant response rating (0 to 10 scale) ([2]; Preemergence, Rate 250 g/ha): 3
Redroot pigweed plant response rating [2, 22]: 6
Plant response rating, Redroot pigweed [2, 23]: 0
Crabgrass plant response rating [3, 17]: 0
Crabgrass plant response rating [3, 18]: 5
Plant response rating, Crabgrass [3, 19]: 4
Crabgrass plant response rating [3, 20]: 9
Crabgrass plant response rating [3, 21]: 9
Crabgrass plant response rating (0 to 10 scale) ([3]; Preemergence, Rate 250 g/ha): 10
Crabgrass plant response rating [3, 22]: 10
Plant response rating, Crabgrass [3, 23]: 4
Velvetleaf plant response rating [4, 17]: 0
Plant response rating, Velvetleaf [4, 19]: 2
Velvetleaf plant response rating [4, 20]: 0
Velvetleaf plant response rating [4, 21]: 0
Velvetleaf plant response rating (0 to 10 scale) ([4]; Preemergence, Rate 250 g/ha): 0
Velvetleaf plant response rating [4, 22]: 0
Plant response rating, Velvetleaf [4, 23]: 0
Bedstraw plant response rating [5, 17]: 0
Bedstraw plant response rating [5, 20]: 0
Bedstraw plant response rating [5, 21]: 0
Bedstraw plant response rating (0 to 10 scale) ([5]; Preemergence, Rate 250 g/ha): 0
Bedstraw plant response rating [5, 22]: 0
Plant response rating, Bedstraw [5, 23]: 0
B. signalgrass plant response rating [6, 17]: 0
B. signalgrass plant response rating [6, 18]: 2
Plant response rating, B. signalgrass [6, 19]: 2
B. signalgrass plant response rating [6, 20]: 4
B. signalgrass plant response rating [6, 21]: 6
B. signalgrass plant response rating (0 to 10 scale, 0 is no effect, 10 is complete control) ([6]; Preemergence, Rate 250 g/ha): 7
B. signalgrass plant response rating [6, 22]: 7
Plant response rating, B. signalgrass [6, 23]: 2
Sugarbeets plant response rating [7, 17]: 0
Plant response rating, Sugarbeets [7, 19]: 0
Sugarbeets plant response rating [7, 20]: 2
Sugarbeets plant response rating [7, 21]: 3
Sugarbeets plant response rating (0 to 10 scale) ([7]; Preemergence, Rate 250 g/ha): 3
Sugarbeets plant response rating [7, 22]: 4
Plant response rating, Sugarbeets [7, 23]: 0
Corn plant response rating [8, 17]: 0
Corn plant response rating [8, 18]: 0
Plant response rating, Corn [8, 19]: 2
Corn plant response rating [8, 20]: 0
Corn plant response rating [8, 21]: 0
Corn plant response rating (0 to 10 scale) ([8]; Preemergence, Rate 250 g/ha): 0
Corn plant response rating [8, 22]: 0
Plant response rating, Corn [8, 23]: 0
Cocklebur plant response rating [9, 17]: 0
Cocklebur plant response rating [9, 18]: 0
Plant response rating, Cocklebur [9, 19]: 0
Cocklebur plant response rating [9, 20]: 0
Cocklebur plant response rating [9, 21]: 0
Cocklebur plant response rating (0 to 10 scale) ([9]; Preemergence, Rate 250 g/ha): 0
Cocklebur plant response rating [9, 22]: 0
Plant response rating, Cocklebur [9, 23]: 0
Blackgrass plant response rating [10, 17]: 0
Blackgrass plant response rating [10, 18]: 0
Plant response rating, Blackgrass [10, 19]: 0
Blackgrass plant response rating [10, 20]: 6
Blackgrass plant response rating [10, 21]: 6
Blackgrass plant response rating (0 to 10 scale) ([10]; Preemergence, Rate 250 g/ha): 8
Blackgrass plant response rating [10, 22]: 8
Plant response rating, Blackgrass [10, 23]: 0
Soybean plant response rating [11, 17]: 0
Plant response rating, Soybean [11, 19]: 2
Soybean plant response rating [11, 20]: 0
Soybean plant response rating [11, 21]: 0
Soybean plant response rating (0 to 10 scale) ([11]; Preemergence, Rate 250 g/ha): 0
Soybean plant response rating [11, 22]: 0
Plant response rating, Soybean [11, 23]: 0
Wheat plant response rating [12, 17]: 0
Plant response rating, Wheat [12, 19]: 0
Wheat plant response rating [12, 20]: 0
Wheat plant response rating [12, 21]: 0
Wheat plant response rating (0 to 10 scale) ([12]; Preemergence, Rate 250 g/ha): 0
Wheat plant response rating [12, 22]: 3
Plant response rating, Wheat [12, 23]: 0
Nutsedge plant response rating [13, 17]: 0
Nutsedge plant response rating [13, 18]: 0
Plant response rating, Nutsedge [13, 19]: 0
Nutsedge plant response rating [13, 20]: 0
Nutsedge plant response rating [13, 21]: 0
Nutsedge plant response rating (0 to 10 scale) ([13]; Preemergence, Rate 250 g/ha): 0
Nutsedge plant response rating [13, 22]: 0
Plant response rating, Nutsedge [13, 23]: 0
Wild oats plant response rating [14, 17]: 0
Plant response rating, Wild oats [14, 19]: 0
Wild oats plant response rating [14, 20]: 0
Wild oats plant response rating [14, 21]: 2
Wild oats plant response rating (0 to 10 scale) ([14]; Preemergence, Rate 250 g/ha): 0
Wild oats plant response rating [14, 22]: 7
Plant response rating, Wild oats [14, 23]: 0
Giant foxtail plant response rating [15, 17]: 0
Giant foxtail plant response rating [15, 18]: 6
Plant response rating, Giant foxtail [15, 19]: 6
Giant foxtail plant response rating [15, 20]: 9
Giant foxtail plant response rating [15, 21]: 9
Giant foxtail plant response rating (0 to 10 scale) ([15]; Preemergence, Rate 250 g/ha): 10
Giant foxtail plant response rating [15, 22]: 10
Plant response rating, Giant foxtail [15, 23]: 6
Rape plant response rating [16, 17]: 0
Rape plant response rating [16, 18]: 0
Plant response rating, Rape [16, 19]: 0
Rape plant response rating [16, 20]: 0
Rape plant response rating [16, 21]: 0
Rape plant response rating (0 to 10 scale) ([16]; Preemergence, Rate 250 g/ha): 0
Rape plant response rating [16, 22]: 2
Plant response rating, Rape [16, 23]: 0
